Measured values published in ChEMBL document CHEMBL4725382, “Uridine natural products: Challenging targets and inspiration for novel small molecule inhibitors” (Bioorg Med Chem, 2020).
≈ marks a conversion by molar mass, not a printed value.

Assays:
[1] = tested on: Mycobacterium tuberculosis; test: Antimycobacterial activity against Mycobacterium tuberculosis H37Rv ATCC 27294 after 14 days by resazurin reduction microplate assay; assay type: functional; conditions: H37Rv ATCC 27294, 336 h
[2] = tested on: Mycobacterium tuberculosis; test: Antimycobacterial activity against Mycobacterium tuberculosis H37Rv; assay type: functional

SMILES	MIC50 [1]	MIC [2]
CC(C)[C@H](NC(=O)N[C@@H](Cc1c[nH]c2ccccc12)C(=O)O)C(=O)N[C@H](C(=O)NC[C@H]1C[C@@H](O)[C@H](n2ccc(=O)[nH]c2=O)O1)[C@H](C)N(C)C(=O)CN	0.88 µM (≈ 0.64 µg/mL)	–
CCc1ccc(NC(=O)C2=CCN(C)[C@@H]([C@H](O[C@@H]3O[C@H](CN)[C@@H](O)[C@H]3O)[C@H]3O[C@@H](n4ccc(=O)[nH]c4=O)[C@H](O)[C@@H]3O)C(=O)N2C)cc1	–	1.09 µM (≈ 0.72 µg/mL)
CCCCCCCCCCOC(=O)C1=CCN(C)[C@@H]([C@H](O[C@@H]2O[C@H](CN)[C@@H](O)[C@H]2O)[C@H]2O[C@@H](n3ccc(=O)[nH]c3=O)[C@H](O)[C@@H]2O)C(=O)N1C	–	8.45 µM (≈ 5.9 µg/mL)
CC(C)C[C@H](NC(=O)N[C@@H](Cc1c[nH]c2ccccc12)C(=O)O)C(=O)N[C@H](C(=O)NC[C@H]1C[C@@H](O)[C@H](n2ccc(=O)[nH]c2=O)O1)[C@H](C)N(C)C(=O)CN	0.63 µM (≈ 0.467 µg/mL)	–
CCCCOc1ccc(N)cc1	–	2.27 µM (≈ 0.375 µg/mL)
CCCCOc1ccc(NC(=O)C2=CCN(C)[C@@H]([C@H](O[C@@H]3O[C@H](CN)[C@@H](O)[C@H]3O)[C@H]3O[C@@H](n4ccc(=O)[nH]c4=O)[C@H](O)[C@@H]3O)C(=O)N2C)cc1	–	1.04 µM (≈ 0.733 µg/mL)
CC(C)C[C@H](NC(=O)N[C@@H](Cc1c[nH]c2ccccc12)C(=O)O)C(=O)N[C@H](C(=O)NC[C@H]1C[C@@H](O)[C@H](n2ccc(=O)[nH]c2=O)O1)[C@H](C)N(C)C(=O)[C@@H](N)Cc1ccccc1	4.05 µM (≈ 3.37 µg/mL)	–
CCCCCCNC(=O)C1=CCN(C)[C@@H]([C@H](O[C@@H]2O[C@H](CN)[C@@H](O)[C@H]2O)[C@H]2O[C@@H](n3ccc(=O)[nH]c3=O)[C@H](O)[C@@H]2O)C(=O)N1C	–	0.98 µM (≈ 0.628 µg/mL)
CCCCCCCCCCCCCNC(=O)C1=CCN(C)[C@@H]([C@H](O[C@@H]2O[C@H](CN)[C@@H](O)[C@H]2O)[C@H]2O[C@@H](n3ccc(=O)[nH]c3=O)[C@H](O)[C@@H]2O)C(=O)N1C	–	0.98 µM (≈ 0.724 µg/mL)
CCCCCCCCNC(=O)C1=CCN(C)[C@@H]([C@H](O[C@@H]2O[C@H](CN)[C@@H](O)[C@H]2O)[C@H]2O[C@@H](n3ccc(=O)[nH]c3=O)[C@H](O)[C@@H]2O)C(=O)N1C	–	0.98 µM (≈ 0.655 µg/mL)
CN1C(=O)[C@H]([C@H](O[C@@H]2O[C@H](CN)[C@@H](O)[C@H]2O)[C@H]2O[C@@H](n3ccc(=O)[nH]c3=O)[C@H](O)[C@@H]2O)N(C)CC=C1C(=O)Nc1ccc(C2CCCCC2)cc1	–	2.18 µM (≈ 1.56 µg/mL)
CCCCCCc1ccc(NC(=O)C2=CCN(C)[C@@H]([C@H](O[C@@H]3O[C@H](CN)[C@@H](O)[C@H]3O)[C@H]3O[C@@H](n4ccc(=O)[nH]c4=O)[C@H](O)[C@@H]3O)C(=O)N2C)cc1	–	1.09 µM (≈ 0.781 µg/mL)
Nc1ccc(C2CCCCC2)cc1	–	2.27 µM (≈ 0.398 µg/mL)
C[C@@H]([C@H](NC(=O)[C@H](CCc1ccccc1)NC(=O)N[C@@H](Cc1c[nH]c2ccccc12)C(=O)O)C(=O)NC[C@H]1C[C@@H](O)[C@H](n2ccc(=O)[nH]c2=O)O1)N(C)C(=O)CN	1.08 µM (≈ 0.853 µg/mL)	–
CCCCCCCC/C=C\CCCCCCCCNC(=O)C1=CCN(C)[C@@H]([C@H](O[C@@H]2O[C@H](CN)[C@@H](O)[C@H]2O)[C@H]2O[C@@H](n3ccc(=O)[nH]c3=O)[C@H](O)[C@@H]2O)C(=O)N1C	–	3.88 µM (≈ 3.13 µg/mL)
CC(C)C[C@H](NC(=O)N[C@@H](Cc1c[nH]c2ccccc12)C(=O)O)C(=O)N[C@H](C(=O)NC[C@H]1C[C@@H](O)[C@H](n2ccc(=O)[nH]c2=O)O1)[C@H](C)N(C)C(=O)[C@H](C)N	0.6 µM (≈ 0.453 µg/mL)	–
CCCCCCCc1ccc(NC(=O)C2=CCN(C)[C@@H]([C@H](O[C@@H]3O[C@H](CN)[C@@H](O)[C@H]3O)[C@H]3O[C@@H](n4ccc(=O)[nH]c4=O)[C@H](O)[C@@H]3O)C(=O)N2C)cc1	–	1.09 µM (≈ 0.797 µg/mL)
CC[C@H](C)[C@H](NC(=O)N[C@@H](Cc1c[nH]c2ccccc12)C(=O)O)C(=O)N[C@H](C(=O)NC[C@H]1C[C@@H](O)[C@H](n2ccc(=O)[nH]c2=O)O1)[C@H](C)N(C)C(=O)CN	0.93 µM (≈ 0.69 µg/mL)	–
CCCCCCCNC(=O)C1=CCN(C)[C@@H]([C@H](O[C@@H]2O[C@H](CN)[C@@H](O)[C@H]2O)[C@H]2O[C@@H](n3ccc(=O)[nH]c3=O)[C@H](O)[C@@H]2O)C(=O)N1C	–	0.98 µM (≈ 0.642 µg/mL)
CC(C)C[C@H](NC(=O)N[C@@H](Cc1c[nH]c2ccccc12)C(=O)O)C(=O)N[C@H](C(=O)NC[C@H]1C[C@@H](O)[C@H](n2ccc(=O)[nH]c2=O)O1)[C@H](C)N(C)C(=O)[C@@H](N)Cc1cccnc1	5.85 µM (≈ 4.87 µg/mL)	–
CCCCCCCCCCNC(=O)C1=CCN(C)[C@@H]([C@H](O[C@@H]2O[C@H](CN)[C@@H](O)[C@H]2O)[C@H]2O[C@@H](n3ccc(=O)[nH]c3=O)[C@H](O)[C@@H]2O)C(=O)N1C	–	0.98 µM (≈ 0.683 µg/mL)
CCCCCCCCCCCCc1ccc(NC(=O)C2=CCN(C)[C@@H]([C@H](O[C@@H]3O[C@H](CN)[C@@H](O)[C@H]3O)[C@H]3O[C@@H](n4ccc(=O)[nH]c4=O)[C@H](O)[C@@H]3O)C(=O)N2C)cc1	–	1.09 µM (≈ 0.873 µg/mL)

SMILES	MIC50 [1]	MIC [2]
CCCCCCCCCCCCCCNC(=O)C1=CCN(C)[C@@H]([C@H](O[C@@H]2O[C@H](CN)[C@@H](O)[C@H]2O)[C@H]2O[C@@H](n3ccc(=O)[nH]c3=O)[C@H](O)[C@@H]2O)C(=O)N1C	–	0.98 µM (≈ 0.738 µg/mL)
CCCCCCCCCNC(=O)C1=CCN(C)[C@@H]([C@H](O[C@@H]2O[C@H](CN)[C@@H](O)[C@H]2O)[C@H]2O[C@@H](n3ccc(=O)[nH]c3=O)[C@H](O)[C@@H]2O)C(=O)N1C	–	0.98 µM (≈ 0.669 µg/mL)
CCCCCCCCCCCCCCCCCCCCCNC(=O)C1=CCN(C)[C@@H]([C@H](O[C@@H]2O[C@H](CN)[C@@H](O)[C@H]2O)[C@H]2O[C@@H](n3ccc(=O)[nH]c3=O)[C@H](O)[C@@H]2O)C(=O)N1C	–	0.98 µM (≈ 0.834 µg/mL)
CCCCCCCCCCCCNC(=O)C1=CCN(C)[C@@H]([C@H](O[C@@H]2O[C@H](CN)[C@@H](O)[C@H]2O)[C@H]2O[C@@H](n3ccc(=O)[nH]c3=O)[C@H](O)[C@@H]2O)C(=O)N1C	–	0.98 µM (≈ 0.71 µg/mL)
CCCCCCCCCCCCCCCCCCCNC(=O)C1=CCN(C)[C@@H]([C@H](O[C@@H]2O[C@H](CN)[C@@H](O)[C@H]2O)[C@H]2O[C@@H](n3ccc(=O)[nH]c3=O)[C@H](O)[C@@H]2O)C(=O)N1C	–	0.98 µM (≈ 0.807 µg/mL)
CCCCCNC(=O)C1=CCN(C)[C@@H]([C@H](O[C@@H]2O[C@H](CN)[C@@H](O)[C@H]2O)[C@H]2O[C@@H](n3ccc(=O)[nH]c3=O)[C@H](O)[C@@H]2O)C(=O)N1C	–	0.98 µM (≈ 0.614 µg/mL)
CCCCCCCCCCCCCCCCCNC(=O)C1=CCN(C)[C@@H]([C@H](O[C@@H]2O[C@H](CN)[C@@H](O)[C@H]2O)[C@H]2O[C@@H](n3ccc(=O)[nH]c3=O)[C@H](O)[C@@H]2O)C(=O)N1C	–	0.98 µM (≈ 0.779 µg/mL)
CCCCCCCCCCCCCCCNC(=O)C1=CCN(C)[C@@H]([C@H](O[C@@H]2O[C@H](CN)[C@@H](O)[C@H]2O)[C@H]2O[C@@H](n3ccc(=O)[nH]c3=O)[C@H](O)[C@@H]2O)C(=O)N1C	–	0.98 µM (≈ 0.752 µg/mL)
CCCCCCCCCCCNC(=O)C1=CCN(C)[C@@H]([C@H](O[C@@H]2O[C@H](CN)[C@@H](O)[C@H]2O)[C@H]2O[C@@H](n3ccc(=O)[nH]c3=O)[C@H](O)[C@@H]2O)C(=O)N1C	–	0.98 µM (≈ 0.697 µg/mL)
CC/C=C\CCCCCCCCCCOC(=O)C1=CCN(C)[C@@H]([C@H](O[C@@H]2O[C@H](CN)[C@@H](O)[C@H]2O)[C@H]2O[C@@H](n3ccc(=O)[nH]c3=O)[C@H](O)[C@@H]2O)C(=O)N1C	–	16.6 µM (≈ 12.5 µg/mL)
CCCCc1ccc(N)cc1	–	2.27 µM (≈ 0.339 µg/mL)
CCCCc1ccc(NC(=O)C2=CCN(C)[C@@H]([C@H](O[C@@H]3O[C@H](CN)[C@@H](O)[C@H]3O)[C@H]3O[C@@H](n4ccc(=O)[nH]c4=O)[C@H](O)[C@@H]3O)C(=O)N2C)cc1	–	1.09 µM (≈ 0.751 µg/mL)
CCCCCCCCCCCCCCCCCCCCNC(=O)C1=CCN(C)[C@@H]([C@H](O[C@@H]2O[C@H](CN)[C@@H](O)[C@H]2O)[C@H]2O[C@@H](n3ccc(=O)[nH]c3=O)[C@H](O)[C@@H]2O)C(=O)N1C	–	0.98 µM (≈ 0.82 µg/mL)
C=CCCCCCCCCCOC(=O)C1=CCN(C)[C@@H]([C@H](O[C@@H]2O[C@H](CN)[C@@H](O)[C@H]2O)[C@H]2O[C@@H](n3ccc(=O)[nH]c3=O)[C@H](O)[C@@H]2O)C(=O)N1C	–	17.6 µM (≈ 12.5 µg/mL)
CN1C(=O)[C@H]([C@H](O[C@@H]2O[C@H](CN)[C@@H](O)[C@H]2O)[C@H]2O[C@@H](n3ccc(=O)[nH]c3=O)[C@H](O)[C@@H]2O)N(C)CC=C1C(=O)NC1CCCCCCCCCCC1	–	2.16 µM (≈ 1.56 µg/mL)
CO[C@@H]1[C@@H](OC)[C@H](C)O[C@@H](OC(=O)C[C@@H](C)CC(=O)O[C@@H](CCCCCCCCCCC(C)C)CC(=O)O[C@H]2CN(C)[C@@H]([C@H](O[C@@H]3O[C@H](CN)[C@@H](O)[C@H]3O)[C@H]3O[C@@H](n4ccc(=O)[nH]c4=O)[C@H](O)[C@@H]3O)C(=O)N(C)[C@@H]2C(=O)O)[C@@H]1OC	–	2.73 µM (≈ 3.13 µg/mL)
CCCCCCCOc1ccc(NC(=O)C2=CCN(C)[C@@H]([C@H](O[C@@H]3O[C@H](CN)[C@@H](O)[C@H]3O)[C@H]3O[C@@H](n4ccc(=O)[nH]c4=O)[C@H](O)[C@@H]3O)C(=O)N2C)cc1	–	0.98 µM (≈ 0.732 µg/mL)
CCCCCCCCCCCCCCCCNC(=O)C1=CCN(C)[C@@H]([C@H](O[C@@H]2O[C@H](CN)[C@@H](O)[C@H]2O)[C@H]2O[C@@H](n3ccc(=O)[nH]c3=O)[C@H](O)[C@@H]2O)C(=O)N1C	–	0.98 µM (≈ 0.765 µg/mL)
CCCCCCCCCCCCCOC(=O)C1=CCN(C)[C@@H]([C@H](O[C@@H]2O[C@H](CN)[C@@H](O)[C@H]2O)[C@H]2O[C@@H](n3ccc(=O)[nH]c3=O)[C@H](O)[C@@H]2O)C(=O)N1C	–	8.45 µM (≈ 6.25 µg/mL)
CCCCCCCCCCCCCCCCCCOC(=O)C1=CCN(C)[C@@H]([C@H](O[C@@H]2O[C@H](CN)[C@@H](O)[C@H]2O)[C@H]2O[C@@H](n3ccc(=O)[nH]c3=O)[C@H](O)[C@@H]2O)C(=O)N1C	–	8.45 µM (≈ 6.84 µg/mL)
CCCCCCCCCCCCCCCCCCNC(=O)C1=CCN(C)[C@@H]([C@H](O[C@@H]2O[C@H](CN)[C@@H](O)[C@H]2O)[C@H]2O[C@@H](n3ccc(=O)[nH]c3=O)[C@H](O)[C@@H]2O)C(=O)N1C	–	0.98 µM (≈ 0.793 µg/mL)
